A value given as a limit tells only on which side of the number the result lay.

Assay [1] concerns Ba/F3 cells expressing HER2 T862A. Briefly: Transduced Ba/F3 cell proliferation inhibitory activity, HER2 T862A. Format: cell-based. The conditions noted are these: Mus musculus, BaF3, 72 hours. The procedure:
(§1) For Ba/F3 cells, RPMI-1640 supplemented with 10% FBS and 5 ng/ml IL-3 (R&D Systems) was used. Transduced Ba/F3 cells were cultured by adding 1 μg/ml puromycin (Invitrogen) to the same medium.
(§2) 3000 to 5000 cells were aliquoted into each well of a white clear bottom 96 well plate (Corning) 24 hours before treatment with the compounds of Examples. The compounds of Examples were diluted in dimethyl sulfoxide (three-fold dilution, a total of 12 concentrations) and injected each in an amount of 1 μl to a final concentration of 0.2 nM to 5 μM. For the measurement of living cells, the cells were stored at room temperature for 10 minutes using CellTiter-Glo luminescent cell-viability reagent (Promega) in 72 hours after treatment with the compounds of Examples, and the luminescence intensity thereof was measured using a reader (SynergyNeo, Biotek). Each test was repeated three times. The result values were calculated as a cell growth rate (%) compared to those of the control group. A graph was created using the GraphPad Prism version 8.3.0 program, and GI50 values were calculated.

A further assay addresses T1, EGFR (Homo sapiens, UniProt P00533).
T1 construct: purchased Reaction Biology Corp
As to the kind of experiment: Biochemical kinase assay for EGFR (Reaction Biology Corp), ATP 10 μM, 10-dose IC50. The procedure:
(§3) Biochemical kinase assays for HER2 and EGFR were performed by Reaction Biology Corp (San Diego, USA).

The test system of assay [2] is Ba/F3 cells expressing EGFR Del19/T790M. As to the kind of experiment: Transduced Ba/F3 cell proliferation inhibitory activity, EGFR Del19/T790M. The conditions noted are these: Mus musculus, BaF3, 72 hours. Format: cell-based. The procedure: as §1, §2
For assay [3], the system named is HaCaT cells (EGFR expressing cell line). As to the kind of experiment: HaCaT cell proliferation inhibitory activity (CellTiter-Glo, 72 hours). Format: cell-based. As to conditions: Homo sapiens. In short, it runs like this: (§4)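 GI50 derived from % growth versus control from CellTiter-Glo luminescence, each test run three times. SK-BR-3 and BT-474 are seeded 48 h ahead at 5000/well and dosed at 0.2 nM–10 μM. N-87 (5000/well) gets […]–5 μM and HaCaT (3000/well) gets 0.8 nM–45 μM, both seeded 24 h ahead.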
For orientation: Cellular ATP, detected with luciferase, serves as a proxy for viable cell number.

The test system of assay [4] is Ba/F3 cells expressing EGFR S768I. As to the kind of experiment: Transduced Ba/F3 cell proliferation inhibitory activity, EGFR S768I. The conditions noted are these: Mus musculus, BaF3, 72 hours. Format: cell-based. As for the experimental part: as §1, §2
Assay [5] has as its system BT-474 cells (HER2 overexpressing cell line). As to the kind of experiment: BT-474 cell proliferation inhibitory activity (CellTiter-Glo, 120 hours). Format: cell-based. As to conditions: Homo sapiens. In short, it runs like this:
as §4

Assay [6] relates to N-87 cells (HER2 overexpressing cell line). Briefly: N-87 cell proliferation inhibitory activity (CellTiter-Glo, 72 hours). Format: cell-based. The essentials: as §4
Assay [7] concerns Ba/F3 cells expressing HER2 L869R. As to the kind of experiment: Transduced Ba/F3 cell proliferation inhibitory activity, HER2 L869R. Format: cell-based. The conditions noted are these: Mus musculus, BaF3, 72 hours. As for the experimental part:
as §1, §2

Assay [8] concerns Ba/F3 cells expressing EGFR G719A. As to the kind of experiment: Transduced Ba/F3 cell proliferation inhibitory activity, EGFR G719A. Format: cell-based. As to conditions: Mus musculus, BaF3, 72 hours. The procedure: as §1, §2
Assay [9] relates to Ba/F3 cells expressing EGFR G719A/S768I. Briefly: Transduced Ba/F3 cell proliferation inhibitory activity, EGFR G719A/S768I. Format: cell-based. As to conditions: Mus musculus, BaF3, 72 hours. The procedure:
as §1, §2

Assay [10] deals with Ba/F3 cells expressing EGFR WT. As to the kind of experiment: Transduced Ba/F3 cell proliferation inhibitory activity, EGFR WT. Format: cell-based. As to conditions: Mus musculus, BaF3, 72 hours. As for the experimental part:
as §1, §2

In assay [11] the test system is Ba/F3 cells expressing EGFR L861Q. Briefly: Transduced Ba/F3 cell proliferation inhibitory activity, EGFR L861Q. Format: cell-based. The conditions noted are these: Mus musculus, BaF3, 72 hours. As for the experimental part: as §1, §2
A further assay addresses T2, HER2 (Homo sapiens, UniProt P04626).
T2 construct: purchased Reaction Biology Corp
Briefly: Biochemical kinase assay for HER2 (Reaction Biology Corp), ATP 10 μM, 10-dose IC50. As for the experimental part:
as §3

The subject of assay [12] is Ba/F3 cells expressing HER2 L756S. As to the kind of experiment: Transduced Ba/F3 cell proliferation inhibitory activity, HER2 L756S. Format: cell-based. The conditions noted are these: Mus musculus, BaF3; Ba/F3 HER2 L755S, 72 hours. The procedure: as §1, §2
Assay [13] concerns SK-BR-3 cells (HER2 overexpressing cell line). As to the kind of experiment: SK-BR-3 cell proliferation inhibitory activity (CellTiter-Glo, 120 hours). Format: cell-based. The conditions noted are these: Homo sapiens. The essentials:
as §4

For assay [14], the system named is Ba/F3 cells expressing HER2 T798I. As to the kind of experiment: Transduced Ba/F3 cell proliferation inhibitory activity, HER2 T798I. Format: cell-based. As to conditions: Mus musculus, BaF3, 72 hours. As for the experimental part: as §1, §2
Assay [15] relates to Ba/F3 cells expressing HER2 WT. Briefly: Transduced Ba/F3 cell proliferation inhibitory activity, HER2 WT. Format: cell-based. The conditions noted are these: Mus musculus, BaF3, 72 hours. The procedure:
as §1, §2

T2 sequence (P04626 23-1255): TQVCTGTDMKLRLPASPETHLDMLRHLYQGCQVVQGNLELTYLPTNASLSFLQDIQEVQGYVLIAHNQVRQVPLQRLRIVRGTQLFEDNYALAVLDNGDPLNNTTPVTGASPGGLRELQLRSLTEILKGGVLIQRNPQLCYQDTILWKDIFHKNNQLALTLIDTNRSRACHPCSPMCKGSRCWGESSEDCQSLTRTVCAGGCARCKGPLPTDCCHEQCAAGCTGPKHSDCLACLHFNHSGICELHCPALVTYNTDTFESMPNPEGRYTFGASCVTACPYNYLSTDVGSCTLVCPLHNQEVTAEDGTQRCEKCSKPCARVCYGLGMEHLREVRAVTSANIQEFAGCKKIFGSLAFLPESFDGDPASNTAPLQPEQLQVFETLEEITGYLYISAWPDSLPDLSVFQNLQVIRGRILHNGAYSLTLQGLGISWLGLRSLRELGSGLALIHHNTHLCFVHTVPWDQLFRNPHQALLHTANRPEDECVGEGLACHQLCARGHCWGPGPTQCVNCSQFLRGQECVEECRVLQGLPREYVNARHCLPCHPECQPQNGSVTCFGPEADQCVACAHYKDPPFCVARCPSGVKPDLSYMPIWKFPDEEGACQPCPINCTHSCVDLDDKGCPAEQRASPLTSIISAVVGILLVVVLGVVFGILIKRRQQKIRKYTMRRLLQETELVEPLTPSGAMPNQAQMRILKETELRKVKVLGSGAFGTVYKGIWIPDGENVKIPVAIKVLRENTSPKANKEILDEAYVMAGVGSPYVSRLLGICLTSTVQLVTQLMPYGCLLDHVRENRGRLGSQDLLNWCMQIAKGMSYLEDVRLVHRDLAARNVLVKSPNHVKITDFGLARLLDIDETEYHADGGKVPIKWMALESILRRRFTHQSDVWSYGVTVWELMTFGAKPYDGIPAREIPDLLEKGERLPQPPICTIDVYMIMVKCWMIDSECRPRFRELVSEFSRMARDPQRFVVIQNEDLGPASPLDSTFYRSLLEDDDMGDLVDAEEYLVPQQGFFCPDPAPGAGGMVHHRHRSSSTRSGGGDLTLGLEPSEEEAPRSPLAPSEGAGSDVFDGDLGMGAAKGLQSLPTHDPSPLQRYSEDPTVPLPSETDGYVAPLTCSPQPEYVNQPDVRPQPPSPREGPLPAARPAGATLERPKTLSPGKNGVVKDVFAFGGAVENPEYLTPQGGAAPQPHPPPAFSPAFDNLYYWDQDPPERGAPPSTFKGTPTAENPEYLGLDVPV
T1 sequence (P00533 25-1210): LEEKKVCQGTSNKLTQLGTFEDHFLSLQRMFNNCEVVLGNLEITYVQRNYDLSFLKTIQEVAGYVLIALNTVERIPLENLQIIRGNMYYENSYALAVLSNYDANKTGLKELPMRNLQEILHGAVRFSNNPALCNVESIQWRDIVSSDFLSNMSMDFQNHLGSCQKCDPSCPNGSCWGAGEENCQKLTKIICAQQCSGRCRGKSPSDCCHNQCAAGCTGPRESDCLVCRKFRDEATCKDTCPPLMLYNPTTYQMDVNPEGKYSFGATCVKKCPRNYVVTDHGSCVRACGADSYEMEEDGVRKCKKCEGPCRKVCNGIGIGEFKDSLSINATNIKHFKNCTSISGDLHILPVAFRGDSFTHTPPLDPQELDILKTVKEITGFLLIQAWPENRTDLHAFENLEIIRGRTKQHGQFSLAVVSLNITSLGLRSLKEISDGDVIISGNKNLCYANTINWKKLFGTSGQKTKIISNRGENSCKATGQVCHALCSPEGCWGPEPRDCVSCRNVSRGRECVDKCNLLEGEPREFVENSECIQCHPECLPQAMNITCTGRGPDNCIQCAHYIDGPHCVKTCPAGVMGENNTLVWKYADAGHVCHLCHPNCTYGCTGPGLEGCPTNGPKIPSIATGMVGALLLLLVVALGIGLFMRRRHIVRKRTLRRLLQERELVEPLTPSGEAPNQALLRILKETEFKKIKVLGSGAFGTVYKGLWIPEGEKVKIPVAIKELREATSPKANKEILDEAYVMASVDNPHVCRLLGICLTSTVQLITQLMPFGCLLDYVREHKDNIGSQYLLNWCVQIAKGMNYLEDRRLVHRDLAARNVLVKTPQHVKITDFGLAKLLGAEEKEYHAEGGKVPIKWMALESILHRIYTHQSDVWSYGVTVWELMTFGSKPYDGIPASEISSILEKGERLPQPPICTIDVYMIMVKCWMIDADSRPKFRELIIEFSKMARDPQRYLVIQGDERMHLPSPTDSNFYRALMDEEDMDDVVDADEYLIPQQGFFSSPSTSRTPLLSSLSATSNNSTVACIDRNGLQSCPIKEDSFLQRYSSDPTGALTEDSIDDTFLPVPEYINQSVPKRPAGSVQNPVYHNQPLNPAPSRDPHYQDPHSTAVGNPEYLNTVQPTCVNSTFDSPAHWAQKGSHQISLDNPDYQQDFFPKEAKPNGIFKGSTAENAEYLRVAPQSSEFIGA

As to `C=CC(=O)N1CCC(Oc2cc3c(Nc4cc(-c5ccc(F)cc5F)ccc4OC)ncnc3cc2OC)CC1` [Example 68, 1-(4-((4-((2′,4′-difluoro-4-methoxy-[1,1′-biphenyl]-3-yl)amino)-7-methoxy-quinazolin-6-yl)oxy)piperidin-1-yl)prop-2-en-1-one], the GI50 in assay [1] was no more than 50 nM; in assay [2], no more than 50 nM; in assay [3], no more than 150 nM; in [4] it was 50 to 100 nM; in [5], no more than 150 nM; in assay [6] it was no more than 150 nM. Further, the GI50 in assay [7] is no more than 50 nM; in [8], no more than 50 nM; in [9], no more than 50 nM; in assay [10], 50 to 100 nM; in assay [11] it was no more than 50 nM; in assay [12] it was no more than 50 nM. The GI50 in [13] is no more than 150 nM; in assay [14], 100 to 500 nM; in [15], no more than 50 nM. The IC50 on EGFR and against HER2 was no more than 50 nM throughout.

For `COc1cc2ncnc(Nc3cc(-c4ccco4)ccc3OC)c2cc1NC(=O)/C=C/[C@H]1CCCN1C` [Example 306, (R,E)-N-(4-((5-(furan-2-yl)-2-methoxyphenyl)amino)-7-methoxyquinazolin-6-yl)-3-(1-methylpyrrolidin-2-yl)acrylamide], the IC50 against EGFR and against HER2 was no more than 50 nM in each case. The GI50 is no more than 150 nM in assay [3]; no more than 50 nM in assay [4]; no more than 150 nM in assay [5]; no more than 150 nM in assay [6]; no more than 50 nM in [10]; no more than 150 nM in [13].

Turning to `COc1cc2ncnc(Nc3cc(-c4ccco4)ccc3OC)c2cc1NC(=O)/C(F)=C\[C@H]1CCCN1C` [Example 307, (R,E)-2-fluoro-N-(4-((5-(furan-2-yl)-2-methoxyphenyl)amino)-7-methoxyquinazolin-6-yl)-3-(1-methylpyrrolidin-2-yl)acrylamide], the GI50 was no more than 150 nM in [3]; no more than 50 nM in assay [4]; no more than 150 nM in [5]; no more than 150 nM in [6]; no more than 50 nM in assay [10]; no more than 150 nM in assay [13].

Consider `C=CC(=O)N1CCC(Oc2cc3c(Nc4cc(-c5ccco5)ccc4OC)ncnc3cc2OC)CC1` [Example 80, 1-(4-((4-((5-(furan-2-yl)-2-methoxyphenyl)amino)-7-methoxy-quinazolin-6-yl)oxy)piperidin-1-yl)prop-2-en-1-one], for which the GI50 in [1] is no more than 50 nM; in assay [2], no more than 50 nM; in [3] it was no more than 150 nM; in assay [4], no more than 50 nM; in assay [5] it was no more than 150 nM; in assay [7] it was no more than 50 nM. The GI50 is no more than 50 nM in assay [8]; no more than 50 nM in assay [9]; no more than 50 nM in assay [10]; no more than 50 nM in assay [11]; no more than 50 nM in assay [12]; no more than 150 nM in assay [13]. Moreover, the GI50 in [14] and in assay [15] was no more than 50 nM in each case. The compound also registered an IC50 at HER2 of no more than 50 nM.

By GI50 is commonly meant the concentration that inhibits growth by half. For orientation: IC50 means the concentration at which inhibition is half-maximal. Low values mean greater potency in that assay, high ones weaker potency in that assay.

The values are drawn from patent US20240246940A1, “HETEROARYL DERIVATIVE COMPOUND AND USE THEREOF” (VORONOI INC., priority 2021, published 2024).
